Test results reported in US10308659B2, “Pyridine derivatives” (Hoffmann-La Roche Inc., priority 2013, dated 2019).
Read-outs that look alike come from different tables or passages of the source.

Columns and labels:
[1] = biological target: human CB2 receptors (Homo sapiens (Human), UniProt P34972); test: cAMP assay, CHO cells expressing human CB2 receptors; format: cell-based
Procedure: (§1) CHO cells expressing human CB1 or CB2 receptors are seeded 17-24 hours prior to the experiment 50.000 cells per well in a black 96 well plate with flat clear bottom (Corning Costar #3904) in DMEM (Invitrogen No. 31331), 1×HT supplement, with 10% fetal calf serum and incubated at 5% CO2 and 37° C. in a humidified incubator. The growth medium was exchanged with Krebs Ringer Bicarbonate buffer with 1 mM IBMX and incubated at 30° C. for 30 min. Compounds were added to a final assay volume of 100 μl and incubated for 30 min at 30° C. […] The time-resolved energy transfer is measured by a TRF reader (Evotec Technologies GmbH), equipped with a ND:YAG laser as excitation source. The plate is measured twice with the excitation at 355 nm and at the emission with a delay of 100 ns and a gate of 100 ns, total exposure time 10 s at 730 (bandwidth30 nm) or 645 nm (bandwidth 75 nm), respectively. The FRET signal is calculated as follows: FRET=T730-Alexa730-P(T645-B645) with P=Ru730-B730/Ru645-B645, where T730 is the test well measured at 730 nM, T645 is the test well measured at 645 nm, B730 and B645 are the buffer controls at 730 nm and 645 nm, respectively. cAMP content is determined from the function of a standard curve spanning from 10 μM to 0.13 nM cAMP.
(§2) EC50 values were determined using Activity Base analysis (ID Business Solution, Limited).

[2] = biological target: human CB1 receptors (Homo sapiens (Human), UniProt P21554); test: cAMP assay, CHO cells expressing human CB1 receptors; format: cell-based
Procedure: as §1, §2

[3] = functional cAMP assay, CHO cells expressing human CB2, read-out: EC50 CB2 human
[4] = functional cAMP assay, CHO cells expressing human CB1, read-out: EC50 CB1 human

human CB1 receptors, sequence (P21554 whole entry): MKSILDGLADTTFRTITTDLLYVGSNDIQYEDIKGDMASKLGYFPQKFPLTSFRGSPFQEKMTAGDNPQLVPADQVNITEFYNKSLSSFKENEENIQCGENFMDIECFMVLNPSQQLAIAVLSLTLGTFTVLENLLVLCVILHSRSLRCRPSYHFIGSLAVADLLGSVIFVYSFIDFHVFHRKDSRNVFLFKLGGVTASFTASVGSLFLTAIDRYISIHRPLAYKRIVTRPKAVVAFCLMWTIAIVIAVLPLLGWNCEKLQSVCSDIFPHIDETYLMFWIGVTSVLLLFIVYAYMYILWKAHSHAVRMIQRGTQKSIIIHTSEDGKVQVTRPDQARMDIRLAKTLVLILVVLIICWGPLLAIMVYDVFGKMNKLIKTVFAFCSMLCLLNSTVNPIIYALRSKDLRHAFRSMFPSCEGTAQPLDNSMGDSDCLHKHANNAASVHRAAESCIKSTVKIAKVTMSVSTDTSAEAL
human CB2 receptors, sequence (P34972 whole entry): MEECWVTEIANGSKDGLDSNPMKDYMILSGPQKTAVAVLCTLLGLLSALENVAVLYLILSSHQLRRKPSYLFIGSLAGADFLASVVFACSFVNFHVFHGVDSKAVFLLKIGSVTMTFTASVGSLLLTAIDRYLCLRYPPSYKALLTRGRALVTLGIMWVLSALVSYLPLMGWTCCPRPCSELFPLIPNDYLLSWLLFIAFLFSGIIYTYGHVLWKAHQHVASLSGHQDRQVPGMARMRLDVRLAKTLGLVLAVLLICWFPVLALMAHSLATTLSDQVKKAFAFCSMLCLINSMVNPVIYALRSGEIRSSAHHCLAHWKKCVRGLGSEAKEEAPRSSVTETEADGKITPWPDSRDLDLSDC

Structure (SMILES): CC(C)(C)c1nc(-c2cc(OC3COC3)c(C3CC3)cn2)no1 [Example 54, 5-tert-butyl-3-[5-cyclopropyl-4-(oxetan-3-yloxy)pyridin-2-yl]-1,2,4-oxadiazole]
- EC50 [1, 3]: 33.1 nM
- EC50 [2, 4]: > 10 µM

Structure (SMILES): Cc1nc(C2(C)COC(c3cc(OCC(F)(F)F)c(C4CC4)cn3)=N2)no1 (stereo not drawn) [Example 111, 3-[2-[5-cyclopropyl-4-(2,2,2-trifluoroethoxy)pyridin-2-yl]-4-methyl-5H-1,3-oxazol-4-yl]-5-methyl-1,2,4-oxadiazole]
- EC50 [1, 3]: 57.6 nM
- EC50 [2, 4]: > 10 µM

Structure (SMILES): C[C@H](Oc1cc(-c2noc(C3CC3)n2)ncc1C1CC1)C(F)(F)F [Example 91, 5-cyclopropyl-3-[5-cyclopropyl-4-[(2S)-1,1,1-trifluoropropan-2-yl]oxypyridin-2-yl]-1,2,4-oxadiazole]
- EC50 [1, 3]: 641 nM
- EC50 [2, 4]: > 10 µM

Structure (SMILES): CN1CCCC(Oc2cc(-c3noc(C(C)(C)C)n3)ncc2C2CC2)C1 (stereo not drawn) [Example 99, 5-tert-butyl-3-[5-cyclopropyl-4-(1-methylpiperidin-3-yl)oxypyridin-2-yl]-1,2,4-oxadiazole]
- EC50 [1, 3]: 317 nM
- EC50 [2, 4]: > 10 µM

Structure (SMILES): CC(C)(C)[C@H]1COC(c2cc(OCC3CC3)c(C3CC3)cn2)=N1 [Example 20, (4S)-4-tert-butyl-2-[5-cyclopropyl-4-(cyclopropylmethoxy)pyridin-2-yl]-4,5-dihydro-1,3-oxazole]
- EC50 [1, 3]: 3.7 nM
- EC50 [2, 4]: > 10 µM

Structure (SMILES): CN1CCC(Oc2cc(-c3noc(C(C)(C)C)n3)ncc2C2CC2)C1 (stereo not drawn) [Example 59, 5-tert-butyl-3-[5-cyclopropyl-4-(1-methylpyrrolidin-3-yl)oxypyridin-2-yl]-1,2,4-oxadiazole]
- EC50 [1, 3]: 48.1 nM
- EC50 [2, 4]: > 10 µM

Structure (SMILES): CC(C)(C)c1nc(-c2cc(OCCN3CCCC3)c(C3CC3)cn2)no1 [Example 94, 5-tert-butyl-3-[5-cyclopropyl-4-(2-pyrrolidin-1-ylethoxy)pyridin-2-yl]-1,2,4-oxadiazole]
- EC50 [1, 3]: 60.2 nM
- EC50 [2, 4]: > 10 µM

Structure (SMILES): NC(=O)C1(c2nc(-c3cc(OCC4CC4)c(C4CC4)cn3)no2)CC1 [Example 25, 1-[3-[5-cyclopropyl-4-(cyclopropylmethoxy)pyridin-2-yl]-1,2,4-oxadiazol-5-yl]cyclopropane-1-carboxamide]
- EC50 [1, 3]: 135 nM
- EC50 [2, 4]: > 10 µM

Structure (SMILES): OCc1nc(-c2cc(OCC3CC3)c(C3CC3)cn2)no1 [Example 18, [3-[5-cyclopropyl-4-(cyclopropylmethoxy)pyridin-2-yl]-1,2,4-oxadiazol-5-yl]methanol]
- EC50 [1, 3]: 110 nM
- EC50 [2, 4]: > 10 µM

Structure (SMILES): C[C@H](Oc1cc(-c2noc(C(C)(C)C)n2)ncc1C1CC1)C(F)(F)F [Example 48, 5-tert-butyl-3-[5-cyclopropyl-4-[(2S)-1,1,1-trifluoropropan-2-yl]oxypyridin-2-yl]-1,2,4-oxadiazole]
- EC50 [1, 3]: 19 nM
- EC50 [2, 4]: > 10 µM

Structure (SMILES): CC(C)(C)c1nc(-c2cc(OCC(F)(F)F)c(Cl)cn2)no1 [Example 70, 5-tert-butyl-3-[5-chloro-4-(2,2,2-trifluoroethoxy)pyridin-2-yl]-1,2,4-oxadiazole]
- EC50 [1, 3]: 5.7 nM
- EC50 [2, 4]: > 10 µM

Structure (SMILES): C[C@H](Oc1cc(-c2nc(C(C)(C)C)no2)ncc1C1CC1)C(F)(F)F [Example 52, 3-tert-butyl-5-[5-cyclopropyl-4-[(2S)-1,1,1-trifluoropropan-2-yl]oxypyridin-2-yl]-1,2,4-oxadiazole]
- EC50 [1, 3]: 13.1 nM
- EC50 [2, 4]: > 10 µM

Structure (SMILES): CCC(COC)Oc1cc(-c2noc(C(C)(C)C)n2)ncc1C1CC1 (stereo not drawn) [Example 84, 5-tert-butyl-3-[5-cyclopropyl-4-(1-methoxybutan-2-yloxy)pyridin-2-yl]-1,2,4-oxadiazole]
- EC50 [1, 3]: 50.1 nM
- EC50 [2, 4]: > 10 µM

Structure (SMILES): CC(C)(C)c1nc(-c2cc(OCC(F)(F)F)c(C3CC3)cn2)no1 [Example 33, 5-tert-butyl-3-[5-cyclopropyl-4-(2,2,2-trifluoroethoxy)pyridin-2-yl]-1,2,4-oxadiazole]
- EC50 [1]: 6.9 nM
- EC50 [2]: > 10 µM

Structure (SMILES): NC1(c2nc(-c3cc(OCC4CC4)c(C4CC4)cn3)no2)COC1 [Example 60, 3-[3-[5-cyclopropyl-4-(cyclopropylmethoxy)pyridin-2-yl]-1,2,4-oxadiazol-5-yl]oxetan-3-amine]
- EC50 [1, 3]: 448 nM
- EC50 [2, 4]: > 10 µM

Structure (SMILES): CC(CN1CCCCC1)Oc1cc(-c2noc(C(C)(C)C)n2)ncc1C1CC1 (stereo not drawn) [Example 96, 5-tert-butyl-3-[5-cyclopropyl-4-(1-piperidin-1-ylpropan-2-yloxy)pyridin-2-yl]-1,2,4-oxadiazole]
- EC50 [1, 3]: 75.9 nM
- EC50 [2, 4]: 1.01 µM

Structure (SMILES): CC(C)(C)c1nc(-c2cc(OCC(F)(F)F)c(S(C)(=O)=O)cn2)no1 [Example 67, 5-tert-butyl-3-[5-methylsulfonyl-4-(2,2,2-trifluoroethoxy)pyridin-2-yl]-1,2,4-oxadiazole]
- EC50 [1, 3]: 434 nM
- EC50 [2, 4]: > 10 µM

Structure (SMILES): CC(C)(C)c1nc(-c2cc(OCCN3CCCCC3)c(C3CC3)cn2)no1 [Example 95, 5-tert-butyl-3-[5-cyclopropyl-4-(2-piperidin-1-ylethoxy)pyridin-2-yl]-1,2,4-oxadiazole]
- EC50 [1, 3]: 26.1 nM
- EC50 [2, 4]: > 10 µM

Structure (SMILES): CC(C)C1(C)N=C(c2cc(OCC(F)(F)F)c(C3CC3)cn2)NC1=O (stereo not drawn) [Example 66, 2-[5-cyclopropyl-4-(2,2,2-trifluoroethoxy)pyridin-2-yl]-4-methyl-4-propan-2-yl-1H-imidazol-5-one]
- EC50 [1, 3]: 9 nM
- EC50 [2, 4]: > 10 µM

Structure (SMILES): c1c(-c2nc(C3CC3)no2)ncc(C2CC2)c1OCC1CC1 [Example 3, 3-cyclopropyl-5-[5-cyclopropyl-4-(cyclopropylmethoxy)pyridin-2-yl]-1,2,4-oxadiazole]
- EC50 [1, 3]: 1.2 nM
- EC50 [2, 4]: > 10 µM

Structure (SMILES): CCC1(CC)COC(c2cc(OCC3CC3)c(C3CC3)cn2)=N1 [Example 11, 2-[5-cyclopropyl-4-(cyclopropylmethoxy)pyridin-2-yl]-4,4-diethyl-5H-1,3-oxazole]
- EC50 [1, 3]: 0.6 nM
- EC50 [2, 4]: > 10 µM

Structure (SMILES): CC(C)(C)c1nc(-c2cc(OCc3cccnc3)c(C3CC3)cn2)no1 [Example 119, 5-tert-butyl-3-[5-cyclopropyl-4-(pyridin-3-ylmethoxy)pyridin-2-yl]-1,2,4-oxadiazole]
- EC50 [1, 3]: 47 nM
- EC50 [2, 4]: > 10 µM

Structure (SMILES): CC(C)(C)c1nc(-c2cc(N3CCCC3)c(C3CC3)cn2)no1 [Example 79, 5-tert-butyl-3-(5-cyclopropyl-4-pyrrolidin-1-ylpyridin-2-yl)-1,2,4-oxadiazole]
- EC50 [1, 3]: 9 nM
- EC50 [2, 4]: > 10 µM

Structure (SMILES): CC(C)(C)c1nc(-c2cc(OC3CCCOC3)c(C3CC3)cn2)no1 (stereo not drawn) [Example 88, 5-tert-butyl-3-[5-cyclopropyl-4-(oxan-3-yloxy)pyridin-2-yl]-1,2,4-oxadiazole]
- EC50 [1, 3]: 52.9 nM
- EC50 [2, 4]: > 10 µM

Structure (SMILES): CC(C)(C)c1nc(-c2cc(OCCN3CCOCC3)c(C3CC3)cn2)no1 [Example 103, 4-[2-[2-(5-tert-butyl-1,2,4-oxadiazol-3-yl)-5-cyclopropylpyridin-4-yl]oxyethyl]morpholine]
- EC50 [1, 3]: 28.9 nM
- EC50 [2, 4]: > 10 µM

Structure (SMILES): CC(C)(C)c1nc(-c2cc(OC3CCOCC3)c(C3(F)COC3)cn2)no1 [Example 109, 5-tert-butyl-3-[5-(3-fluorooxetan-3-yl)-4-(oxan-4-yloxy)pyridin-2-yl]-1,2,4-oxadiazole]
- EC50 [1, 3]: 162 nM
- EC50 [2, 4]: > 10 µM

Structure (SMILES): OC1(c2nc(-c3cc(OCC4CC4)c(C4CC4)cn3)no2)CC1 [Example 23, 1-[3-[5-cyclopropyl-4-(cyclopropylmethoxy)pyridin-2-yl]-1,2,4-oxadiazol-5-yl]cyclopropan-1-ol]
- EC50 [1, 3]: 35.2 nM
- EC50 [2, 4]: > 10 µM

Structure (SMILES): CC(C)(C)c1nc(-c2cc(OCc3ccccn3)c(C3CC3)cn2)no1 [Example 117, 5-tert-butyl-3-[5-cyclopropyl-4-(pyridin-2-ylmethoxy)pyridin-2-yl]-1,2,4-oxadiazole]
- EC50 [1, 3]: 53.9 nM
- EC50 [2, 4]: > 10 µM

Structure (SMILES): COCC(C)Oc1cc(-c2noc(C(C)(C)C)n2)ncc1C1CC1 (stereo not drawn) [Example 87, 5-tert-butyl-3-[5-cyclopropyl-4-(1-methoxypropan-2-yloxy)pyridin-2-yl]-1,2,4-oxadiazole]
- EC50 [1, 3]: 113 nM
- EC50 [2, 4]: > 10 µM

Structure (SMILES): CC1(COc2cc(-c3noc(C(C)(C)C)n3)ncc2C2CC2)COC1 [Example 55, 5-tert-butyl-3-[5-cyclopropyl-4-[(3-methyloxetan-3-yl)methoxy]pyridin-2-yl]-1,2,4-oxadiazole]
- EC50 [1, 3]: 7.7 nM
- EC50 [2, 4]: > 10 µM

Structure (SMILES): Cc1noc(-c2cc(OCC3CC3)c(C3CC3)cn2)n1 [Example 1, 5-[5-cyclopropyl-4-(cyclopropylmethoxy)pyridin-2-yl]-3-methyl-1,2,4-oxadiazole]
- EC50 [1, 3]: 25.7 nM
- EC50 [2, 4]: > 10 µM

Structure (SMILES): FC(F)(F)COc1cc(-c2nc(C(F)(F)F)no2)ncc1C1CC1 [Example 8, 5-[5-cyclopropyl-4-(2,2,2-trifluoroethoxy)pyridin-2-yl]-3-(trifluoromethyl)-1,2,4-oxadiazole]
- EC50 [1, 3]: 21.3 nM
- EC50 [2, 4]: > 10 µM

Structure (SMILES): FC(F)(F)COc1cc(-c2noc(C3CC3)n2)ncc1Cl [Example 71, 3-[5-chloro-4-(2,2,2-trifluoroethoxy)pyridin-2-yl]-5-cyclopropyl-1,2,4-oxadiazole]
- EC50 [1, 3]: 280 nM
- EC50 [2, 4]: > 10 µM
